In patent US11679107B2 (Eisai R&D Management Co., Ltd., priority 2018, dated 2023):
Like-named read-outs stand apart in the source and are kept apart here.

What was measured:
[1] = tested on: Ad2 variant pre-mRNAs spliced in HeLa S3 nuclear extracts; assay: In vitro splicing assay (IVS), RT-qPCR of spliced product; format: biochemical; conditions: for IC50: geometric mean; for Ratio Ad2.1/2.2: ratio of IVS IC50 Ad2.1 to Ad2.2
Experimental: (§1) Batch immobilization of anti-SF3B1 antibody (MBL) to anti-mouse PVT SPA scintillation beads (PerkinElmer) was prepared as follows: for every 2.5 mg of nuclear extracts, 5 μg anti-SF3B1 antibody and 1.5 mg of beads were mixed in 150 μl PBS. The antibody-bead mixture was incubated for 30 min at RT and centrifuged at 18,000 g for 5 min. 150 μl PBS was used to resuspend every 1.5 mg antibody-bead mixture. The beads were suspended and added to the prepared nuclear extracts. The slurry was incubated for 2 h at 4° C. with gentle mixing. The beads were then collected by centrifuging at 18,000 g for 5 min, and washed twice with PBS+0.1% Triton X-100. After a final centrifugation step, every 1.5 mg of beads was suspended with 150 μl of PBS. The SF3b complexes were tested for [^3H]-labelled pladienolide probe binding ([^3H]—PB), synthesized as previously described (Kotake et al., 2007). 100 μl binding reactions were prepared with 50 μl bead slurry and by adding varying concentrations of PB or PB—OH, and after 30 min pre-incubation, 2.5 nM [^3H]—PB was added. The mixture was incubated for 30 min, and luminescence signals were read using a MicroBeta2 Plate Counter (PerkinElmer). Prism 6 (Graphpad) was used for non-linear regression curve fitting of the data. • a. • b. HeLa nuclear extract preparation (for in vitro splicing modulation assay below) • c. HeLa S3 cell pellets were resuspended in hypotonic buffer (10 mM HEPES pH 7.9, 1.5 mM MgCl2, 10 mM KCl, 0.2 mM PMSF, and 0.5 mM DTT) and the suspension was brought up to a total of 5 packed cell volume (PCV). After centrifugation, the supernatant was discarded, and the cells were brought up to 3 PCV with hypotonic buffer and incubated on ice for 10 minutes. Cells were lysed using a dounce homogenizer and then centrifuged. The supernatant was discarded, and the pellet was resuspended with ½ packed nuclear volume (PNV) of low salt buffer (20 mM HEPES pH 7.9, 1.5 mM MgCl2, 20 mM KCl, 0.2 mM EDTA, 25% glycerol, 0.2 mM PMSF, 0.5 mM DTT), followed by ½ PNV of high salt buffer (same as low salt buffer except 1.4 M KCl was used). The nuclei were gently mixed for 30 minutes before centrifuging. The supernatant (nuclear extract) was then dialyzed into storage buffer (20 mM HEPES pH 7.9, 100 mM KCl, 0.2 mM EDTA, 20% glycerol, 0.2 mM PMSF, 0.5 mM DTT). Protein concentration was determined using NanoDrop 8000 UV-Vis spectrophotometer (ThermoFisher Scientific). • d. In vitro splicing assay (IVS)
All Ad2-derived (Pellizzoni et al., 1998) sequences were cloned into pcDNA3.1(+) vector (Promega) using 5′ EcoRI and 3′ XbaI restriction sites. The plasmids were linearized using XbaI and used as DNA templates in the in vitro transcription reactions. The FtzΔi intron-less plasmid (Luo and Reed, 1999) was linearized using EcoRI. All RNAs were in vitro transcribed and then purified using MEGAScript T7 (Invitrogen) and MegaClear (Invitrogen) kits, respectively. For splicing reactions using Ad2 variant pre-mRNAs, […] reactions were prepared using 8 μg nuclear extracts prepared from HeLa S3, 2 ng pre-mRNA, 0.2 ng FTZΔi, and varying concentrations of exemplary payloads or DMSO. After a 15 minute pre-incubation at 30° C., 1 μL splicing activation buffer (0.5 mM ATP, 20 mM creatine phosphate, 1.6 mM MgCl2) was added, and the reactions were incubated for 90 minutes at 30° C. The reactions were then quenched with 13 μL it DMSO, and 25 nL was used for RT-qPCR. RT-qPCR reactions were prepared using TaqMan RNA-to-CT 1-step kit (Life Technologies), RNA from splicing reactions, Ad2 (forward: […]; reverse: […]; probe: […]) and Ftz (forward: […]; reverse: […]; probe: […]) mRNA primer-probe sets. Prism 6 (Graphpad) was used for non-linear regression curve fitting of the formed spliced product and normalized to the control (DMSO) sample.

SF3b complexes = biological target: T1, SF3b complexes (Homo sapiens, UniProt O75533+Q7RTV0); assay: Scintillation proximity assay (SPA) with [3H]-labelled pladienolide probe; format: binding; conditions: SF3B1 (WT); geometric mean; read-out: SPA-ATS GMean IC50 (nM) SF3B1 (WT)
T1 construct: endogenous in cells; host or cells: Nuclear extracts; A HeLa S3 extract preparation is described for the in vitro splicing assay
Experimental: Scintillation Proximity Assay (SPA) with [^3-H]-Labelled Pladienolide Probe
as §1

[2] = tested on: NCI-H1568 cells (high MCL1); assay: Cell proliferation and viability, CellTiter-Glo, 72 hours; format: cell-based; conditions: for GI50: geometric mean
Experimental: Cell lines were maintained in RPMI-1640 (ATCC 30-2001) supplemented with 10% fetal bovine serum (FBS). The Panc lines were supplemented in addition with insulin and FBS up to 15% total.
Compounds for assay were prepared as stocks in 90% dimethyl sulfoxide (DMSO), assessed for purity by LC/MS, and serially diluted in DMSO using a low-volume liquid handler (VIAFLO ASSIST and VIAFLO II electronic 16-channel pipette, 0.5-12.5 μL) in an 11-point half-log serial dilution to create a master dose response (MDR) source used for all tests.
Transfer of compounds from the MDR source plate to cell assay-ready plates were accomplished directly by low-energy acoustic transfer (ATS100, EDC Biosystems). After transfer of compounds to the assay plate, the dose-response range experienced by cells was typically 10 μM-100 pM (5 logs), and final DMSO concentration in the assay was 0.1%, uniformly. Each assay plate was self-anchored containing vehicle/DMSO negative controls, medium-only/positive controls, and cidal control dose-responses of bortezomib and staurosporine. Assay-ready plates were heat-sealed and stored at −20° C. until used, no longer than one month.
A DMSO-matched time zero (T0) plate was read and then all other plates were incubated at 37° C. with 5% CO2 and 95% relative humidity until the end of assay. Cell proliferation and viability assays were performed 72 hours post-treatment depending on cell growth where at least one doubling would have occurred.
Assessment of viability and proliferation was by measurement of cell ATP content using CellTiter-Glo® Luminescent Cell Viability Assay reagent (Promega) according to the manufacturer's instructions (CellTiter-Glo® Luminescent Cell Viability Assay Technical Bulletin Instructions for Use of Product(s) G7570, G7571, G7572, G7573 Literature #TB288, Revised March 2015), using a microtiter plate reader (Envision, PE).
Cell proliferation was evaluated using the time zero (T0) signal as the positive control and the within-plate vehicle wells (DMSO) as the negative control. Data was converted to percent inhibition and falls into the range from −100% to 100% of growth where −100% equals a cidal response and 100% equals uninhibited or maximal growth. Cell growth at or near 0% is considered a static response.

[3] = Ad2.1 pre-mRNA substrate, read-out: qPCR-IVS-ATS GMean IC50 (nM) Ad2.1
[4] = Ad2.2 pre-mRNA substrate, read-out: qPCR-IVS-ATS GMean IC50 (nM) Ad2.2
[5] = NCI-H1568, read-out: CTGlo-ATS GMean GI50 (nM) 72 h NCIH1568.1, NCIH1568.1 cells, 72 h
[6] = NCIH1568.1 cells, 72 h, −100% cidal, 0% static, 100% maximal growth
[7] = 72 h, NCIH1568.1, -100% = cidal, 0% = static, 100% = uninhibited growth
[8] = NCI-H1568, read-out: CTGlo-ATS GMean GI50 (nM) 72 h NCIH1568.1, 72 h, NCIH1568.1

Structure (SMILES)	IC50 [1, 3]	IC50 [1, 4]	IC50 (SF3b complexes)	GI50 [2, 5]	CTGlo-ATS Mean MinResponse % 72 h NCIH1568.1 [2, 6]	Ratio Ad2.1/2.2 [1]	CTGlo-ATS Mean MinResponse % 72 h NCIH1568.1 [2, 7]	GI50 [2, 8]	GI50 ([2]; NCI-H1568, 72 h, read-out: CTGlo-ATS GMean GI50 (nM) 72 h NCIH1568.1, 72 h, NCIH1568.1)
COCC(=O)N1CCC(N(C)c2cc(F)cc(/C=C(\C)[C@H]3OC(=O)C[C@H](O)CC[C@H](C)[C@@H](OC(=O)N4CCN(C)CC4)/C=C/[C@@H]3C)c2)CC1 [Compound 179]	31.4 nM	14.2 nM	6.15 nM	8.7 nM	−82.684%				
C/C(=C\c1cc(F)cc(N2CCN(C(=O)Cn3cccn3)CC2)c1)[C@H]1OC(=O)C[C@H](O)CC[C@H](C)[C@@H](OC(=O)N2CC[C@@H](F)C2)/C=C/[C@@H]1C [Compound 231, [(2S,3S,4E,6R,7S,10R)-2-[(E)-1-[3-fluoro-5-[4-(2-pyrazol-1-ylacetyl)piperazin-1-yl]phenyl]prop-1-en-2-yl]-10-hydroxy-3,7-dimethyl-12-oxo-1-oxacyclododec-4-en-6-yl] (3R)-3-fluoropyrrolidine-1-carboxylate]	513 nM	5.28 nM	26 nM			97.051	−59.209%	22.7 nM	
C/C(=C\c1cc(F)cc(N(C)C2CCN(S(=O)(=O)c3ccccc3)CC2)c1)[C@H]1OC(=O)C[C@H](O)CC[C@H](C)[C@@H](OC(=O)N2CCN(C)CC2)/C=C/[C@@H]1C [Compound 185]	543 nM	46.6 nM	186 nM	114 nM	−99.538%				
C/C(=C\c1cc(F)c2nnn(C3CCCCC3)c2c1)[C@H]1OC(=O)C[C@H](O)CC[C@H](C)[C@@H](OC(=O)N2CCN(C)CC2)/C=C/[C@@H]1C [Compound 164]	20.7 nM	27.9 nM	3.59 nM	1.54 nM	−87.159%				
CC(=O)N1CCC(N(C)c2cc(F)cc(/C=C(\C)[C@H]3OC(=O)C[C@H](O)CC[C@H](C)[C@@H](OC(=O)N4CCN(C)CC4)/C=C/[C@@H]3C)c2)CC1 [Compound 177]	18.2 nM	10.3 nM	2.38 nM	3.62 nM	−80.643%				
C/C(=C\c1cc(F)cc(N2CCN(C(=O)Cn3cccn3)CC2)c1)[C@H]1OC(=O)C[C@H](O)CC[C@H](C)[C@@H](OC(=O)N2CCN(CCO)CC2)/C=C/[C@@H]1C [Compound 234, [(2S,3S,4E,6R,7S,10R)-2-[(E)-1-[3-fluoro-5-[4-(2-pyrazol-1-ylacetyl)piperazin-1-yl]phenyl]prop-1-en-2-yl]-10-hydroxy-3,7-dimethyl-12-oxo-1-oxacyclododec-4-en-6-yl] 4-(2-hydroxyethyl)piperazine-1-carboxylate]	13.1 nM	16.5 nM	3.16 nM			0.793	−81.384%	5.2 nM	
C/C(=C\c1cc(F)c2nnn([C@H]3CCCOC3)c2c1)[C@H]1OC(=O)C[C@H](O)CC[C@H](C)[C@@H](OC(=O)N2CCN(C)CC2)/C=C/[C@@H]1C [Compound 162]	9.29 nM	7.4 nM	1.08 nM	1.47 nM	−75.943%				
C/C(=C\c1cc(F)cc(N(C(C)C)C2CCN(S(C)(=O)=O)CC2)c1)[C@H]1OC(=O)C[C@H](O)CC[C@H](C)[C@@H](OC(=O)N2CCN(C)CC2)/C=C/[C@@H]1C [Compound 176]	49.7 nM	31.2 nM	38.5 nM	19 nM	−88.183%				
C/C(=C\c1cc(F)cc(N2CCN(C(=O)[C@@H](C)O)CC2)c1)[C@H]1OC(=O)C[C@H](O)CC[C@H](C)[C@@H](OC(=O)N2CCN(C)CC2)/C=C/[C@@H]1C [Compound 81]	9.07 nM	4.95 nM	2.59 nM	2.18 nM	−83.963%				
C/C(=C\c1cc(F)cc(N2CCN(C(=O)Cn3cccn3)CC2)c1)[C@H]1OC(=O)C[C@H](O)CC[C@H](C)[C@@H](OC(=O)N2CCN(Cc3cccnc3)CC2)/C=C/[C@@H]1C [Compound 252, [(2S,3S,4E,6R,7S,10R)-2-[(E)-1-[3-fluoro-5-[4-(2-pyrazol-1-ylacetyl)piperazin-1-yl]phenyl]prop-1-en-2-yl]-10-hydroxy-3,7-dimethyl-12-oxo-1-oxacyclododec-4-en-6-yl] 4-(pyridin-3-ylmethyl)piperazine-1-carboxylate]	22.6 nM	27.4 nM	21.8 nM			0.825	−76.109%		10.3 nM
C/C(=C\c1cc(F)c2nnn(CC3CCOCC3)c2c1)[C@H]1OC(=O)C[C@H](O)CC[C@H](C)[C@@H](OC(=O)N2CCN(C)CC2)/C=C/[C@@H]1C [Compound 148]			2.24 nM	1.42 nM	−85.010%				
